Source: patent US8574590B2 (Integral Molecular, Inc., priority 2003, dated 2013)
Where two headings read alike, the source gives them in different places.

Legend:
[1] = depending on the ionic composition of the membrane; cited from earlier work
Kv1.3 = Kv1.3 (Homo sapiens, UniProt P22001); conditions: cited from earlier work
Shaker = Shaker (Drosophila melanogaster, UniProt P08510); conditions: cited from earlier work
[2] = test system: Gag/luciferase-lipoparticles; test: Melittin poration of Gag/luciferase-lipoparticles (luciferase luminescence); assay type: biochemical; conditions: melittin 0.3 to 105 uM, 30 minutes
Protocol: FIG. 24. […] Lipoparticles were constructed to contain a luciferase enzyme inside the lipoparticle. […] To insure the integrity of the luciferase, after each addition of melittin, the same sample was lysed with Triton X-100 (circles) and again measured.
Lipoparticles containing a Gag-luciferase fusion protein were prepared as described herein. Melittin, ranging from 0.3 to 105 uM in final concentration, was added to solutions of Gag/luciferase-lipoparticles (MOPS pH 6.5 buffer), mixed, and incubated for 30 minutes. A 5 μl aliquot of the Lipoparticle solution was then transferred to a 96-well plate containing 50 μl of Luciferase assay reagent (Promega Steady Glo Luciferase Assay System) which contains the necessary reagents for enzymatic activity, including luciferin, ATP, and Mg^2+. Luminescence was measured for 1 second integrations in a Wallac Victor2V. […] Triton X-100 was used to lyse luciferase-lipoparticles as a positive control.

K-channels = conditions: cited from earlier work
Ca-activated K-channels = conditions: cited from earlier work
[3] = read-out: Kd for Ca^++; cited from earlier work

Sequence of Shaker (P08510 whole entry): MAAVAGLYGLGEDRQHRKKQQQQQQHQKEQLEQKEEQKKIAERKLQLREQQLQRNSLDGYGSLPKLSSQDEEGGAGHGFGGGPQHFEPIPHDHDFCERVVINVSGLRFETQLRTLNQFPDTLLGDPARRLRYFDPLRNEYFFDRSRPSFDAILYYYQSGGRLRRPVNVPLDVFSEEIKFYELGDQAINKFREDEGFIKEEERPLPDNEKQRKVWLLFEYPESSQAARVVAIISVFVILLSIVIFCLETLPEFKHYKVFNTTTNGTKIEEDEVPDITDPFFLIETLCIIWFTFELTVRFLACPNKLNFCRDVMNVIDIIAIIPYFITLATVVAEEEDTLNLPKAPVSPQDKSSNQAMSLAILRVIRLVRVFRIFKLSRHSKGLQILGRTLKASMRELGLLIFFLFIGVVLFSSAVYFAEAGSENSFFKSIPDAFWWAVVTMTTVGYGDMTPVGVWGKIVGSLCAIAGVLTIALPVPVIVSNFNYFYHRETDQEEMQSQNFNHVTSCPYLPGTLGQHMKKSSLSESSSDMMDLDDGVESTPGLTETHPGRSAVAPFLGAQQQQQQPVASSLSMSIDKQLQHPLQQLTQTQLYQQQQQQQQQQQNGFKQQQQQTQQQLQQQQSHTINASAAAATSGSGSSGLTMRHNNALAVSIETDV
Sequence of Kv1.3 (P22001 whole entry): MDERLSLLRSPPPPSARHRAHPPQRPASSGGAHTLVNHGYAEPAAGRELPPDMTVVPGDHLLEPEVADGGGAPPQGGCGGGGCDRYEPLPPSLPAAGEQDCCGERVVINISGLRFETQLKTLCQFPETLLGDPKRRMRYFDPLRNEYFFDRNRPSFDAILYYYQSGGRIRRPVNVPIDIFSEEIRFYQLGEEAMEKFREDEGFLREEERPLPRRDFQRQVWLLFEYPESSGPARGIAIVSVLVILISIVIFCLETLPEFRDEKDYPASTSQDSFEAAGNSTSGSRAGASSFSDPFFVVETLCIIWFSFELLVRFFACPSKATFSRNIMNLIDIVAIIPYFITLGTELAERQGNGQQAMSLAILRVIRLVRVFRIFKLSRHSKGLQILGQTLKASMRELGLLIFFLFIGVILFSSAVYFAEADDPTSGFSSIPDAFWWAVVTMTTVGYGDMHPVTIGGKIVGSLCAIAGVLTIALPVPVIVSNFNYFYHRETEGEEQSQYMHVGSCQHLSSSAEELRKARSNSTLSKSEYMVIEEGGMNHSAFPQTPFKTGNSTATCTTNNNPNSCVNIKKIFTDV

CCCCCCCCCCCCCCCCCc1cc(=O)oc2cc(O)ccc12 [4-heptadecyl-7-hydroxycoumarin]
pKa range [1]: 6.35-11.15

Margatoxin
Blocking of Kv1.3 (Kv1.3): Blocks
Blocking of Shaker (Shaker): not Shaker

CC[C@H](C)[C@H](NC(=O)CN)C(=O)NCC(=O)N[C@@H](C)C(=O)N[C@H](C(=O)N[C@@H](CC(C)C)C(=O)N[C@@H](CCCCN)C(=O)N[C@H](C(=O)N[C@@H](CC(C)C)C(=O)N[C@H](C(=O)N[C@H](C(=O)NCC(=O)N[C@@H](CC(C)C)C(=O)N1CCC[C@H]1C(=O)N[C@@H](C)C(=O)N[C@@H](CC(C)C)C(=O)N[C@H](C(=O)N[C@@H](CO)C(=O)N[C@@H](Cc1c[nH]c2ccccc12)C(=O)N[C@H](C(=O)N[C@@H](CCCCN)C(=O)N[C@@H](CCCNC(=N)N)C(=O)N[C@@H](CCCCN)C(=O)N[C@@H](CCCNC(=N)N)C(=O)N[C@@H](CCC(N)=O)C(=O)N[C@@H](CCC(N)=O)C(N)=O)[C@@H](C)CC)[C@@H](C)CC)[C@@H](C)O)[C@@H](C)O)C(C)C)C(C)C [Melittin]
permeabilization of lipoparticles (luciferase signal) [2]: increase of the luminescent signal
permeabilization of lipoparticles (luciferase signal) ([2]; listed as melittin): the lipoparticles were permeabilized

Agitoxin-2: toxin, inhibitor of K-channels
Blocking of Kv1.3 (Kv1.3): Blocks Kv1.3 and Shaker
Blocking of Shaker (Shaker): Blocks Kv1.3 and Shaker

Alpha-Dendrotoxin
Blocking of Kv1.3 (Kv1.3): Blocks Kv1.3 and Shaker
Blocking of Shaker (Shaker): Blocks Kv1.3 and Shaker
binding under high ionic strength conditions (K-channels; high ionic strength): Binds very weakly under high ionic strength
binding under low ionic strength conditions (K-channels; low ionic strength): Binds strongly under low ionic strength conditions

Iberiotoxin: toxin, inhibitor of K-channels (QFTDVDCSVSKECWSVCKDLFGVDRGKCMGKKCRCYQ; UniProt P24663 1-37, looked up)
Blocking of Kv1.3 (Kv1.3): not Kv1.3
Blocking of Shaker (Shaker): not
Blocking of Ca-activated K-channels (Ca-activated K-channels): Blocks

Charybdotoxin
Blocking of Kv1.3 (Kv1.3): Blocks Kv1.3 and Shaker
Blocking of Kv1.3 (Kv1.3; listed as CHTX): highly specific, potent, and impermeant blocker
Blocking of Shaker (Shaker): Blocks Kv1.3 and Shaker
Blocking of Shaker (Shaker; listed as CHTX): highly specific, potent, and impermeant blocker
effect of Ca on binding (K-channels): Ca inhibits binding
binding at low ionic strength, high pH (8.5) (K-channels; low ionic strength, high pH (8.5)): Low ionic strength, high pH (8.5) enhances binding

Cc1ccc(N(CC(=O)O)CC(=O)O)c(OCCOc2cc3cc(-c4ncc(C(=O)O)o4)oc3cc2N(CC(=O)O)CC(=O)O)c1 [Fura-2]
Kd [3]: 140 nM
